Tests used:
NAMPT = NAMPT (Homo sapiens, UniProt P43490); test: Time-Resolved Fluorescence Resonance Energy Transfer (TR-FRET) Binding Assay of NAMPT; details: 6.8 nM NAMPT, 200 nM probe, equilibrated 3 hours, no substrates
Experimental: Determination of the utility of compounds having Formula (I) as binders to and inhibitors of NAMPT was performed using Time-Resolved Fluorescence Resonance Energy Transfer (TR-FRET) binding assays.
Time-Resolved Fluorescence Resonance Energy Transfer (TR-FRET) Binding Assay of NAMPT
Six L were transferred to 384-well low-volume plates ([…] #3673). To this, 12 L of a 1.5× solution containing enzyme, probe and antibody were added. […] Reactions were equilibrated at room temperature for 3 hours prior to reading on an Envision multi-label plate reader (Perkin Elmer; Ex=337 nm, Em=520 and 495 nm). Time-resolved FRET ratios (Em520/Em495) were normalized to controls, plotted as a function of compound concentration and fit with the four-parameter logistic equation to determine IC50s.

PC3 cells = test: NAMPT Cell Proliferation Assay (Cell Titer Glo); assay type: cell-based; details: Homo sapiens, PC-3, 120 h, incubated 5 days, cell viability
Experimental: NAMPT Cell Proliferation Assay
PC3 cells were seeded in 96-well black plates (Corning #3904) at 500 cells/well in 90 µl of RPMI media containing 10% heat-inactivated FBS and incubated overnight at 37° C. and 5% CO2 to allow cells to attach to wells. The following day, test compounds were serially diluted in neat DMSO to 1000× final concentrations prior to dilution with RPMI media to 10× and 1% DMSO. Ten L of the 10× compounds were then transferred to wells containing cells to produce a dose response of 10-fold dilutions from […]. Cells were incubated for 5 days at 37° C. and 5% CO2, then cell viability was measured using Cell Titer Glo reagent (Promega #G7571). Percent inhibition values were calculated and fitted to a sigmoidal dose response curves using Assay Explorer software to determine IC50s.

Chain of NAMPT (P43490 whole entry): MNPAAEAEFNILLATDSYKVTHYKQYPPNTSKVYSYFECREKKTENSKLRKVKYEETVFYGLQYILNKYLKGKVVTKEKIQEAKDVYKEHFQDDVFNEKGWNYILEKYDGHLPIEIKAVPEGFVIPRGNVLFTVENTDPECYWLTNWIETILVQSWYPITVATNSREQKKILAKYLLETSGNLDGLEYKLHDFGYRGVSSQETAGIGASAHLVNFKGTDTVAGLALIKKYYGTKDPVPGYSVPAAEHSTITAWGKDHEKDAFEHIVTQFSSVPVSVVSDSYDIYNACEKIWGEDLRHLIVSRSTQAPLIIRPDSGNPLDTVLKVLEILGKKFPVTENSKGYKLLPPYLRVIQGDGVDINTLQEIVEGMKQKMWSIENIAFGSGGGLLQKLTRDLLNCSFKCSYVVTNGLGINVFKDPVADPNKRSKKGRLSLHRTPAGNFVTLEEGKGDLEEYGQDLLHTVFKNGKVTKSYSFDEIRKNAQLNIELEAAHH

SMILES	IC50 (NAMPT)	IC50 (PC3 cells)
COCC(=O)N1CCC(Oc2ccc(NC(=O)N3CC(c4cccnc4)C3)cc2)CC1 [Example 48, N-(4-{[1-(methoxyacetyl)piperidin-4-yl]oxy}phenyl)-3-(pyridin-3-yl)azetidine-1-carboxamide]	206 nM	95.8 nM
O=C(Nc1ccc(C2CCN(C(=O)[C@@H]3CCCO3)CC2)cc1)N1CC(c2cccnc2)C1 [Example 52, 3-(pyridin-3-yl)-N-(4-{1-[(2S)-tetrahydrofuran-2-ylcarbonyl]piperidin-4-yl}phenyl)azetidine-1-carboxamide]	38.9 nM	6.78 nM
O=C(Nc1ccc(C2CCN(C(=O)[C@H]3CCCO3)CC2)cc1)N1CC(c2cccnc2)C1 [Example 54, 3-(pyridin-3-yl)-N-(4-{1-[(2R)-tetrahydrofuran-2-ylcarbonyl]piperidin-4-yl}phenyl)azetidine-1-carboxamide]	117 nM	58.9 nM
O=C(CC1CC1)N1CCC(c2ccc(NC(=O)N3CC(c4cccnc4)C3)cc2)CC1 [Example 55, N-{4-[1-(cyclopropylacetyl)piperidin-4-yl]phenyl}-3-(pyridin-3-yl)azetidine-1-carboxamide]	29.3 nM	8.06 nM
CC(C)(C)OC(=O)N1CC[C@@H](Oc2ccc(NC(=O)N3CC(c4cccnc4)C3)cc2)C1 [Example 60, tert-butyl (3R)-3-[4-({[3-(pyridin-3-yl)azetidin-1-yl]carbonyl}amino)phenoxy]pyrrolidine-1-carboxylate]	55.4 nM	74.9 nM
CC(C)C(=O)N1CCC(c2ccc(NC(=O)N3CC(c4cccnc4)C3)cc2)C1 (centres unmarked) [Example 65, N-{4-[1-(2-methylpropanoyl)pyrrolidin-3-yl]phenyl}-3-(pyridin-3-yl)azetidine-1-carboxamide]	56.6 nM	62.2 nM
O=C(Nc1ccc(C2CCN(C(=O)[C@@H]3CCCO3)C2)cc1)N1CC(c2cccnc2)C1 (stereo partly drawn) [Example 66, 3-(pyridin-3-yl)-N-(4-{1-[(2S)-tetrahydrofuran-2-ylcarbonyl]pyrrolidin-3-yl}phenyl)azetidine-1-carboxamide]	86 nM	82.2 nM
O=C(Nc1ccc(C2CCN(C(=O)C3CCOC3)C2)cc1)N1CC(c2cccnc2)C1 (centres unmarked) [Example 68, 3-(pyridin-3-yl)-N-{4-[1-(tetrahydrofuran-3-ylcarbonyl)pyrrolidin-3-yl]phenyl}azetidine-1-carboxamide]	86.2 nM	59.1 nM
O=C(CC1CC1)N1CCC(c2ccc(NC(=O)N3CC(c4cccnc4)C3)cc2)C1 (centres unmarked) [Example 69, N-{4-[1-(cyclopropylacetyl)pyrrolidin-3-yl]phenyl}-3-(pyridin-3-yl)azetidine-1-carboxamide]	44.8 nM	61.3 nM

Stronger by IC50 (NAMPT), values ahead:

IC50 (NAMPT)	IC50 (PC3 cells)	SMILES
27.4 nM	8.83 nM	CC(C)C(=O)N1CCC(c2ccc(NC(=O)N3CC(c4cccnc4)C3)cc2)CC1 [Example 56, N-{4-[1-(2-methylpropanoyl)piperidin-4-yl]phenyl}-3-(pyridin-3-yl)azetidine-1-carboxamide]
27.3 nM	59.5 nM	Cn1cccc1C(=O)N1CCC(Oc2ccc(NC(=O)N3CC(c4cccnc4)C3)cc2)CC1 [Example 36, N-[4-({1-[(1-methyl-1H-pyrrol-2-yl)carbonyl]piperidin-4-yl}oxy)phenyl]-3-(pyridin-3-yl)azetidine-1-carboxamide]
17.4 nM	7.86 nM	O=C(CC(F)(F)F)N1CCC(c2ccc(NC(=O)N3CC(c4cccnc4)C3)cc2)CC1 [Example 58, 3-(pyridin-3-yl)-N-{4-[1-(3,3,3-trifluoropropanoyl)piperidin-4-yl]phenyl}azetidine-1-carboxamide]
15.6 nM	8.57 nM	O=C(CC1CCOCC1)N1CCC(c2ccc(NC(=O)N3CC(c4cccnc4)C3)cc2)CC1 [Example 50, 3-(pyridin-3-yl)-N-{4-[1-(tetrahydro-2H-pyran-4-ylacetyl)piperidin-4-yl]phenyl}azetidine-1-carboxamide]
